Format in all cases: cell-based
In experiment [1] the target is T1, Cav3.2 (T-type channel alpha-1H) (Homo sapiens, UniProt O95180).
T1 construct: expressed in transfected cells; host or cells: HEK 293
The experiment can be described thus: T-type calcium channel voltage-clamp assay, Cav3.2. The conditions noted are these: read-out: Cav 3.2 IC50. How it is done:
(§1) The T-type calcium channel blocking activity of the compounds of this invention may be readily determined using the methodology well known in the art described by Xia, et al., Assay and Drug Development Tech., 1 (5), 637-645 (2003).
(§2) In a typical experiment ion channel function from HEK 293 cells expressing the T-type channel alpha-1G, H, or I (CaV 3.1, 3.2, 3.3) is recorded to determine the activity of compounds in blocking the calcium current mediated by the T-type channel alpha-1G, H, or I (CaV 3.1, 3.2, 3.3). In this T-type calcium (Ca^2+) antagonist voltage-clamp assay calcium currents are elicited from the resting state of the human alpha-1G, H, or I (CaV 3.1, 3.2, 3.3) calcium channel as follows. Sequence information for T-type (Low-voltage activated) calcium channels are fully disclosed in e.g., U.S. Pat. No. 5,618,720, U.S. Pat. No. 5,686,241, U.S. Pat. No. 5,710,250,U.S. Pat. No. 5,726,035, U.S. Pat. No. 5,792,846, U.S. Pat. No. 5,846,757, U.S. Pat. No. 5,851,824, U.S. Pat. No. 5,874,236, U.S. Pat. No. 5,876,958, U.S. Pat. No. 6,013,474, U.S. Pat. No. 6,057,114, U.S. Pat. No. 6,096,514, WO 99/28342, and J. Neuroscience, 19 (6):1912-1921 (1999). Cells expressing the t-type channels were grown in H3D5 growth media which is comprised DMEM, 6% bovine calf serum (HYCLONE), 30 micromolar Verapamil, 200 microgram/ml Hygromycin B, 1× Penicillin/Streptomycin. Glass pipettes are pulled to a tip diameter of 1-2 micrometer on a pipette puller. The pipettes are filled with the intracellular solution and a chloridized silver wire is inserted along its length, which is then connected to the headstage of the voltage-clamp amplifier. Trypsinization buffer was 0.05% Trypsin, 0.53 mM EDTA. The extracellular recording solution consists of (mM): 130 mM NaCl, 4 mM KCl, 1 mM MgCl2, 2 mM CaCl2, 10 mM HEPES, 30 Glucose, pH 7.4. The internal solution consists of (mM): 135 mM CsMeSO4, 1 MgCl2, 10 CsCl, 5 EGTA, 10 HEPES, pH 7.4, or 135 mM CsCl, 2 MgCl2, 3 MgATP, 2 Na2ATP, 1 Na2GTP, 5 EGTA, 10 HEPES, pH 7.4. Upon insertion of the pipette tip into the bath, the series resistance is noted (acceptable range is between 1-4 megaohm). The junction potential between the pipette and bath solutions is zeroed on the amplifier. The cell is then patched, the patch broken, and, after compensation for series resistance (>=80%), the voltage protocol is applied while recording the whole cell Ca2+ current response. Voltage protocols: (1) −80 mV holding potential every 20 seconds pulse to −20 mV for 40 msec duration; the effectiveness of the drug in inhibiting the current mediated by the channel is measured directly from measuring the reduction in peak current amplitude initiated by the voltage shift from −80 mV to −20 mV; (2). −100 mV holding potential every 15 seconds pulse to −20 mV for 40 msec duration; the effectiveness of the drug in inhibiting the current mediated by the channel is measured directly from measuring the reduction in peak current amplitude initiated by the shift in potential from −100 mV to […]. The difference in block at the two holding potentials was used to determine the effect of drug at differing levels of inactivation induced by the level of resting state potential of the cells. After obtaining control baseline calcium currents, extracellular solutions containing increasing concentrations of a test compound are washed on. Once steady state inhibition at a given compound concentration is reached, a higher concentration of compound is applied. % inhibition of the peak inward control Ca2+ current during the depolarizing step to −20 mV is plotted as a function of compound concentration.

The next experiment addresses T2, Human Cav2.2 channels (Homo sapiens, UniProt Q00975).
T2 construct: expressed in transfected cells
Put plainly: Block of Cav2.2 (N-type) channels expressed in HEK293 cells. The note with it: for inhibition at 10 µM / inhibition at 30 µM: HEK293; for inhibition at 10 µM: read-out: Cav 2.2 % Inh @ 10 μM; for inhibition at 30 µM: read-out: Cav 2.2 % Inh @ 30 μM; for IC50: read-out: Cav 2.2 IC50. The source says:
Human Cav2.2 channels were stably expressed in HEK293 cells along with alpha2-delta and beta subunits of voltage-gated calcium channels. An inwardly rectifying potassium channel (Kir2.3) was also expressed in these cells to allow more precise control of the cell membrane potential by extracellular potassium concentration. At low bath potassium concentration, the membrane potential is relatively negative, and is depolarized as the bath potassium concentration is raised. In this way, the bath potassium concentration can be used to regulate the voltage-dependent conformations of the channels. Compounds are incubated with cells in the presence of low (4 mM) potassium or elevated (12, 25 or 30 mM) potassium to determine the affinity for compound block of resting (closed) channels at 4 mM potassium or affinity for block of open and inactivated channels at 12, 25 or 30 mM potassium. After the incubation period, Cav2.2 channel opening is triggered by addition of higher concentration of potassium (70 mM final concentration) to further depolarize the cell. The degree of state-dependent block can be estimated from the inhibitory potency of compounds after incubation in different potassium concentrations.
Calcium influx through Cav2.2 channels is determined using a calcium sensitive fluorescent dye in combination with a fluorescent plate reader. Fluorescent changes were measured with either a VIPR (Aurora Instruments) or FLIPR (Molecular Devices) plate reader.
Protocol • 1. Seed cells in Poly-D-Lysine Coated 96 or 384-well plate and keep in a 37° C.-10% CO2 incubator overnight • 2. Remove media, wash cells with 0.2 mL (96-well plate) or 0.05 mL (384-well plate) Dulbecco's Phosphate Buffered Saline (D-PBS) with calcium & magnesium (Invitrogen; 14040) • 3. Add 0.1 mL (96-well plate) or 0.05 mL (384-well plate) of 4 μM fluor-4 (Molecular Probes; F-14202) and 0.02% Pluronic acid (Molecular Probes; P-3000) prepared in D-PBS with calcium & magnesium (Invitrogen; 14040) supplemented with 10 mM Glucose & 10 mM Hepes/NaOH; pH 7.4 • 4. Incubate in the dark at 25° C. for 60-70 min • 5. Remove dye, wash cells with 0.1 mL (96-well plate) or 0.06 mL (384-well plate) of 4, 12, 25, or 30 mM Potassium Pre-polarization Buffer (PPB) • 6. Add 0.1 mL (96-well plate) or 0.03 mL (384-well plate) of 4, 12, 25, 30 mM PPB with or without test compound • 7. Incubate in the dark at 25° C. for 30 min • 8. Read cell plate on VIPR instrument, Excitation=480 nm, Emission=535 nm • 9. With VIPR continuously reading, add 0.1 mL (96-well plate) or 0.03 mL (384-well plate) of Depolarization Buffer (DB), which is 2× the final assay concentration, to the cell plate.
Block of N-type calcium channels is evaluated utilizing the IonWorks HT 384 well automated patch clamp electrophysiology device. This instrument allows synchronous recording from 384 well (48 at a time). A single whole cell recording is made in each well. Whole cell recording is established by perfusion of the internal compartment with amphotericin B.
The voltage protocol is designed to detect use-dependent block. A 2 Hz train of depolarizations (twenty 25 ms steps to +20 mV). The experimental sequence consists of a control train (pre-compound), incubation of cells with compound for 5 minutes, followed by a second train (post-compound). Use dependent block by compounds is estimated by comparing fractional block of the first pulse in the train to block of the 20th pulse.
Parallel patch clamp electrophysiology is performed using IonWorks HT (Molecular Devices Corp) essentially as described by Kiss and colleagues (Kiss et al. 2003; Assay and Drug Development Technologies, 1:127-135). Briefly, a stable HEK 293 cell line (referred to as CBK) expressing the N-type calcium channel subunits (α1B, α2δ, β3a) and an inwardly rectifying potassium channel (Kir2.3) is used to record barium current through the N-type calcium channel. Cells are grown in T75 culture plates to 60-90% confluence before use. […]

The target in experiment [2] is T3, Cav3.1 (T-type channel alpha-1G) (Homo sapiens, UniProt O43497).
T3 construct: expressed in transfected cells; host or cells: HEK 293
T3 sequence (O43497 whole entry): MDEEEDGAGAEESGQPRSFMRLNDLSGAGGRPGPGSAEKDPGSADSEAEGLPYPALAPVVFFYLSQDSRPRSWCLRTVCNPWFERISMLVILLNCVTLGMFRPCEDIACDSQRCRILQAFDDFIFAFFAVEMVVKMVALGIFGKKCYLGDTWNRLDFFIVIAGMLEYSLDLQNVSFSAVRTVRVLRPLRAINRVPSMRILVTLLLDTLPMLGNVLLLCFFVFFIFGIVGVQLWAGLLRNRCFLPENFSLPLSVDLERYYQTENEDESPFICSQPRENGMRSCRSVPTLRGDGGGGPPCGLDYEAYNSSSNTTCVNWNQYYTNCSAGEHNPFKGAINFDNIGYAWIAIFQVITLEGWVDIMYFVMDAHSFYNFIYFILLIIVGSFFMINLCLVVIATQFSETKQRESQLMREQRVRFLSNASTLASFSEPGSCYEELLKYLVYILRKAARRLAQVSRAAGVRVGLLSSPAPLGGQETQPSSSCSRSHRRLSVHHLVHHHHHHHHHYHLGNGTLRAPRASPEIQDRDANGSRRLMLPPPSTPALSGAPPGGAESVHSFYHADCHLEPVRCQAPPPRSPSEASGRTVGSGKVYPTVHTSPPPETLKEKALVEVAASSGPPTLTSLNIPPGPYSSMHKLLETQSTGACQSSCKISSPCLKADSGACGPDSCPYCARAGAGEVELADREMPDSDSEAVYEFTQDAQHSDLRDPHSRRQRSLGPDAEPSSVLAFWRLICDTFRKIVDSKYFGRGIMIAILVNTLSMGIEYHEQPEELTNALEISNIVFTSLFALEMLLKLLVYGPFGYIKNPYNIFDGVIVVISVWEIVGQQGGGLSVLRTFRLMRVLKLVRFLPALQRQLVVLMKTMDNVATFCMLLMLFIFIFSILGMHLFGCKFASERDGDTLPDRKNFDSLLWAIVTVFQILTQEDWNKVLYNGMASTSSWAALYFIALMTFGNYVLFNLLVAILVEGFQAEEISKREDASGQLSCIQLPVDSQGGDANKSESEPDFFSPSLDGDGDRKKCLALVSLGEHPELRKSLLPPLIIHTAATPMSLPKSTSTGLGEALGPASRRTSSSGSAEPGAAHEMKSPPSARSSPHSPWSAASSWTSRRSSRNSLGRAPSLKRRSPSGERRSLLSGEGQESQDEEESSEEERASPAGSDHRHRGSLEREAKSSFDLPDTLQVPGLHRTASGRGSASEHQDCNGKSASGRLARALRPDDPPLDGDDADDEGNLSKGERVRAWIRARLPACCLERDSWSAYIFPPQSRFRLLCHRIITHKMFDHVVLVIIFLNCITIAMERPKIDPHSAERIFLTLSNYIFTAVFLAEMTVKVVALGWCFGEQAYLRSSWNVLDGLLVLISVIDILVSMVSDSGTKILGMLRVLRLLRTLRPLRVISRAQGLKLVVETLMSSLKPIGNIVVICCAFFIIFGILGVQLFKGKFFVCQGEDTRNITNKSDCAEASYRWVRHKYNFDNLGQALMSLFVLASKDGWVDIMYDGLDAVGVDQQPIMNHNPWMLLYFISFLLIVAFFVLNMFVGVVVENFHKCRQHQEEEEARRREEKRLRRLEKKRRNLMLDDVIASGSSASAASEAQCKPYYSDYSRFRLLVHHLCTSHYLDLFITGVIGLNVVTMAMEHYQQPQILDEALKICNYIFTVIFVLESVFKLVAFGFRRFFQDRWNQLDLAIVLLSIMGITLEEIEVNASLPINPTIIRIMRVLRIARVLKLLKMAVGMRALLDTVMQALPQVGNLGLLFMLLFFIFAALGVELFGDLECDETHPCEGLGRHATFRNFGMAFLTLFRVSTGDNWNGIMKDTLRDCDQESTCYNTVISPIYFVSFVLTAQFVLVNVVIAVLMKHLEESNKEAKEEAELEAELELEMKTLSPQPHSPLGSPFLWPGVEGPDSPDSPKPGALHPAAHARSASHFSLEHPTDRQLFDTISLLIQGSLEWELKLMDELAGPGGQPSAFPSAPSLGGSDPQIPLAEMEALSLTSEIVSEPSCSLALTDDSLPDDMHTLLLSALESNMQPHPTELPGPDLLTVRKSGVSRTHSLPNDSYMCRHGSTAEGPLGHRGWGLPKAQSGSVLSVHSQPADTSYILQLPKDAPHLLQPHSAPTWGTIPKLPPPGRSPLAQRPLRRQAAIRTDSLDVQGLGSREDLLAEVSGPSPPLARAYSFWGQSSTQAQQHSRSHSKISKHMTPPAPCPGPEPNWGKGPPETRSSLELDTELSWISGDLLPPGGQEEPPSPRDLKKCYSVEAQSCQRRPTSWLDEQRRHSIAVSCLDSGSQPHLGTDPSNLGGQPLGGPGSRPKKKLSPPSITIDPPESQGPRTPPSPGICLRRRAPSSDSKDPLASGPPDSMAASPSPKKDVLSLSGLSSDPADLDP
Put plainly: T-type calcium channel voltage-clamp assay, Cav3.1. The conditions noted are these: read-out: Cav 3.1 IC50. How it is done:
as §1, §2

T1 sequence (O95180 whole entry): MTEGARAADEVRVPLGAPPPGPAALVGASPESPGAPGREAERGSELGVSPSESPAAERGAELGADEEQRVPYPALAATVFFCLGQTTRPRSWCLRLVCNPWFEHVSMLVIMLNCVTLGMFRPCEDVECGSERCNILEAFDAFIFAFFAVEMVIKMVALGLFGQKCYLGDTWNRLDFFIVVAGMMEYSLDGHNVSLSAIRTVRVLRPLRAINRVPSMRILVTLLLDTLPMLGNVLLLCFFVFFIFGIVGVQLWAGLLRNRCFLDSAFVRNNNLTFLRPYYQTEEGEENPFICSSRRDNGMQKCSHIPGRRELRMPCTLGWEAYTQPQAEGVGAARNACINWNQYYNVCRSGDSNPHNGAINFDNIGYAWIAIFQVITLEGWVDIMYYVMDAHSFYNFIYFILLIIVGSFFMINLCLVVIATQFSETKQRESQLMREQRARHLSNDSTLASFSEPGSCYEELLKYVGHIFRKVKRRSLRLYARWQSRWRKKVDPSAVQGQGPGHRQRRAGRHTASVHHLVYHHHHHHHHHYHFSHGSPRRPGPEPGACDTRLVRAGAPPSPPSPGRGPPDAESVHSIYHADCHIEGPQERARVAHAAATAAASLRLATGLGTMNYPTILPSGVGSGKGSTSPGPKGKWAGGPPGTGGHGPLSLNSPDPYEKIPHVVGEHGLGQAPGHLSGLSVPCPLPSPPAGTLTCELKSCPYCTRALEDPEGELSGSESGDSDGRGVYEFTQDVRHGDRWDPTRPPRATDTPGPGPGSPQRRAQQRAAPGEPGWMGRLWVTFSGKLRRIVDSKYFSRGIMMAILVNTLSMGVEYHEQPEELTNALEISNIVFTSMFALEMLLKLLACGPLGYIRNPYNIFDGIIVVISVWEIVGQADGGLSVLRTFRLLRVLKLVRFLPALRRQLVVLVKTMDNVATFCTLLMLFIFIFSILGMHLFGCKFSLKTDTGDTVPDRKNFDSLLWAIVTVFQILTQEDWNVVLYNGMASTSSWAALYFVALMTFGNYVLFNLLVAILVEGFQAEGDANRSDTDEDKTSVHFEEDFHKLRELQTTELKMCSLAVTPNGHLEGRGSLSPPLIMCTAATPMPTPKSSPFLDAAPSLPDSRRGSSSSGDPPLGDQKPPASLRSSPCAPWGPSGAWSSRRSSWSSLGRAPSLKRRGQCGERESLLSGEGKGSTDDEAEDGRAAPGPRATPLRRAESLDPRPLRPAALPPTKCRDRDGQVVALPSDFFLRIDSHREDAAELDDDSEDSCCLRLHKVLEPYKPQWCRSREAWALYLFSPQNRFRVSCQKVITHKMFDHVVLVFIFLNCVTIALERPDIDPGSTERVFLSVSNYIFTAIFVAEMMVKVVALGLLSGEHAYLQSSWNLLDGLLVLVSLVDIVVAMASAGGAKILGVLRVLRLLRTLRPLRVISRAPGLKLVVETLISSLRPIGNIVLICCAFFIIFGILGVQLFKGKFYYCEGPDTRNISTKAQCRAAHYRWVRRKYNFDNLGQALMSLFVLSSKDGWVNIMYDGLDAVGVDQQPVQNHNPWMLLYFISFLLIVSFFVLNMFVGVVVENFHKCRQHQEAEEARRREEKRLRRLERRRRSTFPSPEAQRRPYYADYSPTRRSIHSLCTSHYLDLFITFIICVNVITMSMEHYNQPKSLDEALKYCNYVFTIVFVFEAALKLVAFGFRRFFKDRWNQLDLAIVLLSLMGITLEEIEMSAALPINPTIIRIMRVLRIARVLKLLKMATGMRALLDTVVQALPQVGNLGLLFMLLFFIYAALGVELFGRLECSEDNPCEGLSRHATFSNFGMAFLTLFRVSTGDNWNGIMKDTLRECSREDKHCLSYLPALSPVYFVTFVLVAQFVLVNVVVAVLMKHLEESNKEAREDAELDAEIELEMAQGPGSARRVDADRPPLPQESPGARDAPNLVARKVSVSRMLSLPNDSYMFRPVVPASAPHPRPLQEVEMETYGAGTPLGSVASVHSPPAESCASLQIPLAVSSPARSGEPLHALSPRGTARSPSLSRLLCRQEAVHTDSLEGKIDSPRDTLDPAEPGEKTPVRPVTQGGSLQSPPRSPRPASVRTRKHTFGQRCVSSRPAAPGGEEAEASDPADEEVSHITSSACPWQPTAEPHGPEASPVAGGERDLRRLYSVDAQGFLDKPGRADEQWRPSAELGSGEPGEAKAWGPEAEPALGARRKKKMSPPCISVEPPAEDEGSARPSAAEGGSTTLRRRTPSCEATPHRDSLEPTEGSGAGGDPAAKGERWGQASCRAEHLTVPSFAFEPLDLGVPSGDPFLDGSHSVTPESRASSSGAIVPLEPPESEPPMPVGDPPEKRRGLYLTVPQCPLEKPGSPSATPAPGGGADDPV

As for `Cc1ccc(OCC(=O)N2CCN(c3cc(C(C)(C)C)cc(C(C)(C)C)c3)CC2)c(C)c1` [Compound 14, 1-(4-(3,5-di-tert-butylphenyl)piperazin-1-yl)-2-(2,4-dimethylphenoxy)ethanone], in experiment [1], the IC50 was determined as 1110 nM. On Human Cav2.2 channels, the inhibition at 10 µM is 86%, the inhibition at 30 µM was 93% and the IC50 came to 1370 nM. The IC50 in experiment [2] was found to be 1280 nM.
With `CC(C)(C)c1cc(N2CCN(C(=O)c3ccc(F)c(C(F)(F)F)c3)CC2)cc(C(C)(C)C)c1` [Compound 16, (4-(3,5-di-tert-butylphenyl)piperazin-1-yl)(4-fluoro-3-(trifluoromethyl)phenyl)methanone], in experiment [1], the IC50 is 690 nM. In addition, at Human Cav2.2 channels, the inhibition at 10 µM worked out at 96%, the inhibition at 30 µM came to 90% and the IC50 was determined as 1460 nM. Moreover, in experiment [2], the IC50 came to 680 nM.
Turning to `CC(C)(C)C(=O)Nc1cc(C(=O)N2CCN(c3cc(C(C)(C)C)cc(C(C)(C)C)c3)CC2)ccn1` [Compound 22, N-(4-(4-(3,5-di-tert-butylphenyl)piperazine-1-carbonyl)pyridin-2-yl)pivalamide], the values for the IC50 (in experiment [1]; at Human Cav2.2 channels; in experiment [2]) were 70 nM, 990 nM and 50 nM, respectively. Besides, on Human Cav2.2 channels, the inhibition at 10 µM amounted to 99%. For the same compound, the inhibition at 30 µM at Human Cav2.2 channels came out at 103%.
Take `CC(C)c1cc(C(=O)N2CCN(c3cc(C(C)(C)C)cc(C(C)(C)C)c3)CC2)cs1` [Compound 23, (4-(3,5-di-tert-butylphenyl)piperazin-1-yl)(5-isopropylthiophen-3-yl)methanone]: the IC50 in experiment [1] was determined as 870 nM. Moreover, on Human Cav2.2 channels, the inhibition at 10 µM came to 90%, the inhibition at 30 µM worked out at 97% and the IC50 worked out at 1400 nM. Further, the IC50 in experiment [2] was found to be 800 nM.
For `Cc1ccc(C(=O)N2CCN(c3cc(C(C)(C)C)cc(C(C)(C)C)c3)CC2)s1` [Compound 28, (4-(3,5-di-tert-butylphenyl)piperazin-1-yl)(5-methylthiophen-2-yl)methanone], the IC50 in experiment [1] amounted to 960 nM. Besides, on Human Cav2.2 channels, the inhibition at 10 µM turned out to be 87%, the inhibition at 30 µM came to 101% and the IC50 is 2400 nM. For the same compound, in experiment [2], the IC50 worked out at 800 nM.
`Cc1ccsc1C(=O)N1CCN(c2cc(C(C)(C)C)cc(C(C)(C)C)c2)CC1` [Compound 29, (4-(3,5-di-tert-butylphenyl)piperazin-1-yl)(3-methylthiophen-2-yl)methanone]: the results for the half-maximal inhibitory concentration (IC50) (in experiment [1]; on Human Cav2.2 channels; in experiment [2]) were 1010 nM, 2000 nM and 840 nM, respectively. The inhibition at 10 µM at Human Cav2.2 channels was 88%. The inhibition at 30 µM on Human Cav2.2 channels is 101%.
Turning to `Cc1nc(C(F)(F)F)ccc1C(=O)N1CCN(c2cc(C(C)(C)C)cc(C(C)(C)C)c2)CC1` [Compound 30, (4-(3,5-di-tert-butylphenyl)piperazin-1-yl)(2-methyl-6-(trifluoromethyl)pyridin-3-yl)methanone], the IC50 in experiment [1] stood at 1150 nM. Besides, on Human Cav2.2 channels, the inhibition at 10 µM turned out to be 91%, the inhibition at 30 µM was 100% and the IC50 is 1300 nM. For the same compound, in experiment [2], the half-maximal inhibitory concentration (IC50) was 970 nM.
For the compound `CCCSc1ncccc1C(=O)N1CCN(c2cc(C(C)(C)C)cc(C(C)(C)C)c2)CC1` [Compound 31, (4-(3,5-di-tert-butylphenyl)piperazin-1-yl)(2-(propylthio)pyridin-3-yl)methanone], the IC50 in experiment [1] was found to be 1590 nM. Further, on Human Cav2.2 channels, the inhibition at 10 µM was determined as 99%, the inhibition at 30 µM came out at 104% and the IC50 worked out at 850 nM. In experiment [2], the IC50 stood at 1250 nM.
Regarding `Cc1nc(C)c(C(=O)N2CCN(c3cc(C(C)(C)C)cc(C(C)(C)C)c3)CC2)s1` [Compound 32, (4-(3,5-di-tert-butylphenyl)piperazin-1-yl)(2,4-dimethylthiazol-5-yl)methanone], the values for the IC50 (in experiment [1]; on Human Cav2.2 channels; in experiment [2]) were 1150 nM, 780 nM and 1090 nM, respectively. For the same compound, at Human Cav2.2 channels, the inhibition at 10 µM was found to be 98%. Also, on Human Cav2.2 channels, the inhibition at 30 µM is 98%.
In the case of `CCn1nc(C)cc1C(=O)N1CCN(c2cc(C(C)(C)C)cc(C(C)(C)C)c2)CC1` [Compound 33, (4-(3,5-di-tert-butylphenyl)piperazin-1-yl)(1-ethyl-3-methyl-1H-pyrazol-5-yl)methanone], in experiment [1], the IC50 amounted to 2520 nM. Further, at Human Cav2.2 channels, the inhibition at 10 µM was found to be 97%, the inhibition at 30 µM came out at 95% and the concentration for half-maximal inhibition (IC50) turned out to be 830 nM. Besides, the half-maximal inhibitory concentration (IC50) in experiment [2] is 2340 nM.

By IC50 is commonly meant the concentration that gives 50% inhibition.

Values taken from patent US20090270413A1, “DI-T-BUTYLPHENYL PIPERAZINES AS CALCIUM CHANNEL BLOCKERS” (priority 2008, published 2009).
